Source: PMC9994102, “A fluorescent photoaffinity probe for formyl peptide receptor 1 labelling in living cells†” (RSC Chemical Biology, 2023)
Square brackets hold non-standard residues; d marks the D form. * marks the point of attachment. FITC = O=C1OC2(c3ccc(O)cc3Oc3cc(O)ccc32)c2ccc(NC(=S)*)cc21; Abu(3-Me-diazirin-3-yl) = CC1(CC[C@H](N)C(=O)O)N=N1; Nle = CCCC[C@H](N)C(=O)O; For = O=C*

Experiments:
[1] = system: FPR1 (crude membrane fraction of transfected HEK293T cells); assay: gel-based competition of probe-TAMRA labelling in membrane fraction; assay type: binding; conditions: 50 nM probe-TAMRA, 30 min on ice, 2% DMSO, 365 nm 30 s, PNGaseF
Protocol: (a) UV-dependent crosslinking analysed by gel and western blot. […] Following cell lysis, samples were separated by SDS-PAGE and analysed by in-gel fluorescence (550 nm emission) and anti-FLAG western blot. Ponceau staining was used to assess protein loading. […] Probes were used at a concentration of 10 nM. Samples were washed twice before analysis and 10,000 cells were measured per sample. […] HEK293T cells transfected with FPR1 or mock transfected were suspended, lysed by sonication and membrane fraction isolated by centrifugation. […] Proteins were deglycosylated with PNGaseF, separated by SDS-PAGE and analysed by in-gel fluorescence (550nm emission). The gel was Coomassie stained to provide evidence of equal protein loading.
(§1) Cells were incubated in a humidified atmosphere at 37 °C containing 5% CO2. HEK293T cells were cultured in Dulbecco’s Modified Eagle Medium (DMEM, Fisher) supplemented with 1% L-glutamine, 10% v/v fetal bovine serum (FBS) and 1% v/v Pen-Strep. Cells were detached using 1  trypsin in PBS.
HEK293T cells were seeded in a 6-well plate (2 × 10^5 cells/well) and incubated at 37 °C overnight. The plasmid containing FPR1 gene (0.7 µg/µL stock) and Turbofect (Fisher) were mixed with DMEM (no FBS) and incubated at room temperature for 15 min (1 µg of plasmid and 3 µL of Turbofect in 100 µL of media per well). The solution was added to the plated cells and incubated at 37 °C overnight. For mock transfection, the plasmid was omitted.
For 10 cm plate transfection for lysate preparation, the following modifications were used: 1.6×10^6 cells were seeded per plate; 8 µg plasmid and 24 µL Turbofect were mixed in 800 µL DMEM.
Transfected cells were washed with PBS and incubated in 1 mL of PBS with EDTA (per well) at 37 °C for 3 min to detach. The cells were then transferred into sterile Eppendorf tubes and centrifuged at 2000 rpm for 3 min at 4 °C to form pellets. Subsequently the cells were incubated with 1 mL of 10 nM probe in PBS at 0 °C for 30 min. […] Protein concentration was determined by the DC protein assay (Bio-Rad) using BSA to generate a standard curve. […]

[2] = system: FPR1 (FPR1-HEK293T cells); assay: flow cytometry competition of probe-TAMRA with known ligands; assay type: binding; conditions: probe-TAMRA 10 nM
Protocol: as §1
HEK293T cells were seeded in a 6-well plate (2 × 10^5 cells/well) and incubated at 37 °C overnight. The plasmid containing FPR1 gene (0.7 µg/µL stock) and Turbofect (Fisher) were mixed with DMEM (no FBS) and incubated at room temperature for 15 min (1 µg of plasmid and 3 µL of Turbofect in 100 µL of media per well). The solution was added to the plated cells and incubated at 37 °C overnight. For mock transfection, the plasmid was omitted. […]
concentrations of 5 µM, 20 µM, 5 µM respectively) or DMSO for 30 min on ice (final DMSO concentration of 2%). […] Membranes were resuspended in 25 µL PBS, irradiated for 30 s at 365 nm, deglycosylated as described in section 2.6, and then analysed by SDS-PAGE.
Crosslinked cell lysate samples were analysed using gel-based fluorescent imaging. […] Fluorescence was measured using a BioRad ChemiDoc MP Imaging System with a Cy3 filter. […]

[3] = biological target: T1, FPR1 (FLAG-tagged, transiently transfected HEK293T cells) (Homo sapiens, UniProt P21462); assay: flow cytometry binding to FPR1-transfected HEK293T cells; conditions: 10 nM; 10 000 cells per sample
T1 construct: host or cells: HEK293T, transient transfection with Turbofect
T1 sequence (P21462 1-350): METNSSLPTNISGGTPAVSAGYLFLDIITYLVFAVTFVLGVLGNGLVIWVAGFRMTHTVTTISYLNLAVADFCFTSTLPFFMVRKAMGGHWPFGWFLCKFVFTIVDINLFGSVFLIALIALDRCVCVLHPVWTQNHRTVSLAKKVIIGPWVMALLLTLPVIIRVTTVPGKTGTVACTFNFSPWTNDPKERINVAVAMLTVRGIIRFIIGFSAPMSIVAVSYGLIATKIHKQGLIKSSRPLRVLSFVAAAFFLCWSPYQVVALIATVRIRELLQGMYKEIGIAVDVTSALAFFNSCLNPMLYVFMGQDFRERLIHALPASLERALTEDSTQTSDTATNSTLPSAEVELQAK
Protocol: Fig. 2 Evaluation of probe-TAMRA as a ligand for FPR1 by flow cytometry. Histograms of FPR1-transfected (+FPR1) or mock-transfected (mock) HEK293T cells incubated with Tracer-FITC (a) or probe-TAMRA (b) each at 10 nM at the indicated wavelengths. 10 000 cells measured per sample. (c) Plot of mean fluorescence intensity determined from flow cytometry analysis following incubation with increasing concentrations of probe-TAMRA with transfected (blue) or mock transfected (grey) cells. Data from 3 biological replicates; error bars represent standard error of the mean. Black curve is subtraction of background binding (grey curve) from blue curve and represents specific binding. (d) Dot plot from incubation of transfected cells with Tracer-FITC alone (cyan), probe-TAMRA alone (blue), or co-incubation of probe and tracer (red). All peptides at 10 nM. (e) Plot of percentage maximum fluorescence at 525 nm (FITC) and 585 nm (TAMRA) wavelengths from a flow cytometry competition experiment in which Tracer-FITC was held constant at a concentration of 10 nM and the concentration of probe-TAMRA increased from 0–200 nM. […]
Transfected cells were washed with PBS and incubated in 1 mL of PBS with EDTA (per well) at 37 °C for 3 min to detach. […] Protein concentration was determined by the DC protein assay (Bio-Rad) using BSA to generate a standard curve. […]

FPR1 [4] = biological target: FPR1; parameters: method as in 4 sources, ref [17] = [17]; PMID 18312550; doi:10.1111/j.1747-0285.2008.00646.x; Wittelsberger A. Mierke D. F. Rosenblatt M. Mapping ligand-receptor interfaces: approaching the resolution limit of benzophenone-based photoaffinity scanning Chem. Biol. Drug Des. 2008 71 4 380 383 10 ||| ref [20] = [20]; PMID 472759; doi:10.1126/science.472759; Niedel J. E. Kahane I. Receptor-Mediated Internalisation of Fluorescent Chemotactic Peptide by Human Neutrophils Science 1979 205 1412 1414 10.1126/science.472759 472759 ||| ref [21] = [21]; PMID 15209517; doi:10.1021/bi035335i; Waller A. Sutton K. L. Kinzer-Ursem T. L. Absood A. Traynor J. R. Linderman J. J. Omann G. M. Receptor binding kinetics and cellular responses of six N-formyl peptide agonists in human neutrophils Bio ||| ref [30] = [30]; PMID 19006074; doi:10.1002/cyto.a.20670; Strouse J. J. Young S. M. Mitchell H. D. Ye R. D. Prossnitz E. R. Sklar L. A. Edwards B. S. A novel fluorescent cross-reactive formylpeptide receptor/formylpeptide receptor-like 1 hexapeptide ligand C; conditions: cited from earlier work; for binding to FPR1: ref [20]
FPR1 [5] = conditions: ref [20]; cited from earlier work
Protocol: Upon agonist binding, FPR1 internalises following activation of G protein subunits, resulting in receptor desensitisation.[20] […] Upon heating to 37 °C, fluorescent material was ob ...

[6] = biological target: T2, Formyl peptide receptor 1, C-terminally FLAG-tagged (UniProt P21462 1-350); assay: flow cytometry on cells; FPR1-transfected or mock-transfected HEK293T cells incubated with the fluorescent peptide (10 nM; probe-TAMRA titrated 0-200 nM); background of mock-transfected cells subtracted; 3 biological replicates; conditions: one partner purified
T2 construct: Formyl peptide receptor 1 (FPR1); Glycosylated in HEK293T (diffuse band that sharpens with PNGaseF); also called FPR1; FLAG-tagged FPR1; source: HEK293T, transiently transfected; on living cells, in lysate (sonication) or in a crude membrane fraction; not shown: FLAG, C-terminal, kept
T2 sequence (looked up): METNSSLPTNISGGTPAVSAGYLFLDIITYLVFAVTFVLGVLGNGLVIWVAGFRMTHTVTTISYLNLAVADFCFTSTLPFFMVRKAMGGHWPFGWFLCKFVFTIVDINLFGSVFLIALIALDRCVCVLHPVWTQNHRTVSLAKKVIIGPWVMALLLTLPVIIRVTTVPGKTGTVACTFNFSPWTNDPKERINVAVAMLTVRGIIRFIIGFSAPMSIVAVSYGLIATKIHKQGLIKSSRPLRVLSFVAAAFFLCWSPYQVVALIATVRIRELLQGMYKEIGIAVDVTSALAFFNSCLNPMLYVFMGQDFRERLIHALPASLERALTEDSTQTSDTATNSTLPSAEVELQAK

Boc-MLF
inhibition of probe-TAMRA labelling ([1]; 20 μM competitor): incomplete inhibition | concentration at which competition of probe-TAMRA binding observed [2]: 10 to 50 µM

For-[Nle]LF[Nle]YK(FITC)-OH [Tracer-FITC]
fluorescence shift in flow cytometry [3]: clear shift to a population of fluorescent cells with minimal background binding in mock-transfected cells | Kd (FPR1 [4]; ref [17], read-out: reported KD): ~3 nM | binding to FPR1 (FPR1 [4]): low nM binding to FPR1

fMLF
inhibition of probe-TAMRA labelling ([1]; 5 μM competitor): incomplete inhibition | concentration at which competition of probe-TAMRA binding observed [2]: greater than 5 μM | KD of tripeptide (reported, words) (FPR1 [4]; ref [21]): nM range

fMLFF
inhibition of probe-TAMRA labelling ([1]; 5 μM competitor): complete inhibition | potency as reported (FPR1 [4]; ref [30]): more potent

formyl-Nle-Leu-Phe-Nle-Tyr-Lys(TAMRA)-OH [TAMRA version of the tracer]
internalisation (literature) (FPR1 [5]): receptor internalisation | binding to FPR1 (FPR1 [4]): low nM binding to FPR1

For-[Abu(3-Me-diazirin-3-yl)]LF[Nle]YK(5(6)‑TAMRA)-OH [probe-TAMRA]
Kd [6]: 3.5 ± 0.9 nM
